B1: BID BH3 peptide (peptide)
peptide: EDIIRNIARHLAQVGDSMDR
B2: GST-vBcl-2 (1–146) with N67D/V117A (domain or fragment)
chain: MDEDVLPGEVLAIEGIFMACGLNEPEYLYHPLLSPIKLYITGLMRDKESLFEAMLANVRFHSTTGIDQLGLSMLQVSGDGNMNWGRALAILTFGSFVAQKLSNEPHLRDFALAVLPAYAYEAIGPQWFRARGGWRGLKAYCTQVLT

Tests used:
vBcl-2–NM23-H2 complex = vBcl-2–NM23-H2 complex (Human gammaherpesvirus 8, UniProt Q76RI8, N67D/V117A); assay: HTRF protein-protein interaction assay; type: binding
vBcl-2 = vBcl-2 (Human gammaherpesvirus 8, UniProt Q76RI8, N67D/V117A); assay: surface plasmon resonance; type: binding
[1] = molecular target: B2; assay: AlphaScreen or HTRF
His-NM23-H2 = His-NM23-H2 (human, UniProt P22392 1-152); assay: AlphaScreen or HTRF

Cc1nc(Nc2nc3ccccc3o2)[nH]c(=O)c1C [VBNI-1, 2-(Benzo[d]oxazol-2-ylamino)-5,6-dimethylpyrimidin-4(3H)-one]
IC50 (vBcl-2–NM23-H2 complex): ~0.064 µM | Kd (vBcl-2): 0.875 µM

B1
binding result [1]: binds

B2
binding result (His-NM23-H2): binds
